Results taken from patent US10196604B2, “Mitochondrial inhibitors for use in culturing pluripotent stem cells” (The Board of Trustees of the Leland Stanford Junior …, priority 2014, dated 2019).

What was measured:
SURVIVIN = experiment: qRT-PCR gene expression in hES cells: SURVIVIN; format: cell-based; conditions: Homo sapiens, 72 hours, normalized to β-ACTIN, read-out: Expression relative to control, SURVIVIN; for fold induction at 1000 µM: 1 mM
Experimental: (§1) Total cellular RNA was extracted from cells using TRIzol (Invitrogen) and DNase treated with the DNA-free kit (Ambion, Austin, Tex., http (colon slash slash) www (dot) ambion.com) following manufacturer's directions for stringent conditions. RNA was dialyzed for 30 minutes against milliqwater, 10 mM Tris and 1 mM EDTA adjusted to pH 7.5 with HCL (all from Fisher). cDNA was synthesized using GeneAmp RNA PCR kit from Applied Biosciences (Fisher) and no-RT reactions were performed without reverse transcriptase and RNase inhibitor enzymes. One microgram of RNA was used, following manufacturer's directions. Quantitative real time polymerase chain reaction (qPCR) was performed to determine relative mRNA expression levels. Expression fold changes were calculated using the ΔΔCt method and normalized using the housekeeping gene, β-ACTIN as an internal control. Taqman master mix and gene assays with water only were used as a negative control. mRNA expression assays were analyzed in a triplicate PCR reaction with no-RT negative controls and each experiment was performed at least three independent times. Primers for OCT4 and NANOG were selected from predeveloped Applied Biosystems TaqMan Assays, which are pre-designed qPCR primers and TaqMan MGB probes; Oct-4 (Hs01895061_u1) and Nanog (Hs02387400_g1) were selected. Primers for SURVIVIN were: […]
(§2) Based on the toxicity results, nine of the above twelve compounds in Example 1 were selected for further screening to assess their effects on the expression of OCT4, NANOG and SURVIVIN in human embryonic stem cells. The results are summarized in Table 2, along with the mitochondrial inhibition activities for these compounds which were disclosed in US20110301180A1 to Collman et al. the content of which has been incorporated herein by reference.
(§3) The pluripotency of these cultured human embryonic stem cells were characterized by the marker gene expression as analyzed by Quantitative Reverse Transcriptase PCR (qRT-PCR). All compounds were tested at 1 mM concentration for 72 hours except for compound 1 which was tested at 10 μM. The reversibility of mitochondrial inhibition is presented in the right column.

OCT4 = experiment: qRT-PCR gene expression in hES cells: OCT4; format: cell-based, human; conditions: 72 hours
Experimental: as §1, §2, §3

NANOG [1] = experiment: qRT-PCR gene expression in hES cells: NANOG; format: cell-based; conditions: Homo sapiens, 72 hours, normalized to β-ACTIN, read-out: Expression relative to control, NANOG; for fold induction at 1000 µM: 1 mM
Experimental: as §1, §2, §3

SURVIVIN, OCT4 and NANOG = experiment: qRT-PCR of the three probed genes together (SURVIVIN, OCT4, NANOG) in hES cells; format: cell-based, human; conditions: 72 hours
Experimental: as §1, §2, §3

[2] = test system: mitochondrial respiration; conditions: cited from earlier work; for mitochondrial inhibition IC50: values from US 20110301180; for Inhibition/Reversibility in mitochondrial inhibition: disclosed in US20110301180A1
NANOG [3] = conditions: human embryonic stem cells; cited from earlier work
[4] = test system: human embryonic stem cells; experiment: Toxicity testing of mitochondrial inhibitors on hES cells (72 hr culture, crystal violet staining); conditions: for nontoxic concentration (no toxicity up to): tested from 0.1 mM to 50 mM
Experimental: Human ES cells, WA09 (WiCell Research Institute, Madison, Wis.) were cultured on dishes coated for at least two hours with Matrigel (BD Biosciences, Franklin Lakes, N.J.). hES cell media containing 80% knockout Dulbecco's modified eagle medium (DMEM), 20% knockout serum replacer, 1% nonessential amino acids, 1% penicillin/streptomycin (100 U per 100 μg/ml), 2 mM L-glutamine, (all from Invitrogen, Carlsbad, Calif.) and 4 ng/ml basic fibroblast growth factor (bFGF, ReproCELL, San Jose, Calif.) was pre-conditioned by culture with inactivated mouse embryonic fibroblasts (MEF; Millipore, Billerica, Mass.) and collected every two days. hES cell lines were cultured with human conditioned media (HuCM) supplemented with 4 ng/ml bFGF and a heterocyclic compound of a certain concentration. hES cells were maintained by weekly manual passaging or bulk passaging using 1 mg/ml Collagenase IV (Invitrogen). hES cells were plated for experiments using Accutase (Fisher, Pittsburgh, Pa.) and plated at a density of 26,000 cells/cm^2.
Toxicity Testing hES cells were plated as above and subjected to increasing concentrations of the mitochondrial inhibitors for 72 hr of culture. After 72 hr the cells were fixed in 2.0% formaldehyde and stained for 30 min with 0.05% crystal violet in distilled water. Stained cells were rinsed twice with distilled water and imaged using bright field microscopy.
These compounds were initially tested at concentrations from 0.1 mM to 50 mM.

[5] = Solubility in the culture media; format: physicochemical; conditions: hES cell culture media
Source text: Compound 2 was not soluble in the culture media and was not tested further.

[6] = Homo sapiens, 1 mM, normalized to β-ACTIN, read-out: Expression relative to control, OCT4

| SMILES | fold induction at 1000 µM (SURVIVIN) | fold induction at 1000 µM (OCT4; [6]) | fold induction at 1000 µM (NANOG [1]) | One of the genes overexpressed by at least 10% (SURVIVIN, OCT4 and NANOG; 1 mM) | change in expression of SURVIVIN, OCT4 and NANOG following treatment (FIG. 2) (SURVIVIN, OCT4 and NANOG; 1 mM) | mitochondrial inhibition IC50 [2] [mg/mL] | Inhibition/Reversibility in mitochondrial inhibition [2] | other results |
| --- | --- | --- | --- | --- | --- | --- | --- | --- |
| O=C(O)CCCC[C@H]1CCSS1 (single isomer, unassigned) [Compound 3, 5-[(3R or 3S)-dithiolan-3-yl]pentanoic acid] | 1.11 | 1.85 | 0.717 | Yes | increased expression of SURVIVIN and OCT4 but not NANOG | 37.1 | – | – |
| CCCCCC[C@H]1C(=O)O[C@H](C)[C@H](NC(=O)c2cccc(NC=O)c2O)C(=O)O[C@@H](C)[C@@H]1OC(=O)CC(C)C [Antimycin A, [(2R,3S,6S,7R,8R)-3-[(3-formamido-2-hydroxybenzoyl)amino]-8-hexyl-2,6-dimethyl-4,9-dioxo-1,5-dioxonan-7-yl] 3-methylbutanoate] | – | – | – | – | – | – | – | effect on expression of pluripotency factor NANOG (NANOG [3]): increase in the expression of pluripotency factor NANOG |
| Cc1ncsc1CCOC(=O)C[P+](c1ccccc1)(c1ccccc1)c1ccccc1.[Br-] [Compound 1, [2-[2-(4-methylthiazol-5-yl)ethoxy]-2-oxo-ethyl]-triphenyl-phosphonium bromide] | – | – | – | – | – | 8.8 | No | fold induction at 10 µM (SURVIVIN; 10 μM): 0.892; toxicity at the initially tested concentrations ([4]; initial range 0.1 mM to 50 mM): toxic at all concentrations tested initially; nontoxic / well tolerated concentration (up to) ([4]; retested at 0.1 to 100 μM): up to 10 μM; fold induction at 10 µM (OCT4; Homo sapiens, 10 μM, normalized to β-ACTIN, read-out: Expression relative to control, OCT4): 0.9; fold induction at 10 µM (NANOG [1]; 10 μM): 0.902; One of the genes overexpressed by at least 10% (SURVIVIN, OCT4 and NANOG; 10 μM): No; change in expression of SURVIVIN, OCT4 and NANOG following treatment (FIG. 2) (SURVIVIN, OCT4 and NANOG; 10 μM): decreased expression of all three genes |
| c1ccc(CSc2nnn[nH]2)cc1 [Compound 2, 5-benzylsulfanyl-1H-tetrazole] | – | – | – | – | – | – | – | solubility in the culture media [5]: not soluble |
| Cc1cncs1 [Compound 4, 5-methylthiazole] | 1.27 | 1.13 | 1.14 | Yes | increased expression of all three genes | 23.5 | reversible mitochondrial inhibitors and Yes | nontoxic concentration (no toxicity up to) [4]: ≤ 10 mM |
| Cn1c(-c2ccccc2)cnc1S [Compound 5, 3-methyl-4-phenyl-1H-imidazole-2-thione] | 1.44 | 1.5 | 1.16 | Yes | increased expression of all three genes | 5.4 | – | nontoxic concentration (no toxicity up to) [4]: at least 5 mM |
| CCOC(=O)Cc1nnn[nH]1 [Compound 6, ethyl 2-(1H-tetrazol-5-yl)acetate] | 1.75 | 1.34 | 0.867 | Yes | increased expression of SURVIVIN and OCT4 but not NANOG | 100 | – | – |
| Nc1nnn[nH]1 [Compound 7, 1H-tetrazol-5-amine] | 1.73 | 1.53 | 0.917 | Yes | increased expression of SURVIVIN and OCT4 but not NANOG | 8.5 | reversible mitochondrial inhibitors and Yes | OCT4 overexpression (OCT4; 1 mM, vs control): at least 50% |
| Brc1nn[nH]c1Br [Compound 9, 4,5-dibromo-1H-triazole] | – | – | – | – | – | – | – | toxicity at 1 mM ([4]; 1 mM): minimal toxicity; nontoxic concentration (no toxicity up to) [4]: up to 0.1 mM |
| Cc1nnn[nH]1 [Compound 10, 5-methyl-1H-tetrazole] | 0.981 | 0.977 | 0.778 | No | decreased expression of all three genes | – | – | – |
| O=C(O)Cc1nnn[nH]1 [Compound 11, 2-(1H-tetrazol-5-yl)acetic acid] | 0.975 | 1.07 | 0.849 | No | increase in OCT4 and no other genes | – | – | – |
| CSc1nnn[nH]1 [Compound 12, 5-methylsulfanyl-1H-tetrazole] | 1.05 | 1.16 | 0.844 | Yes | increased expression of SURVIVIN and OCT4 but not NANOG | 14.5 | reversible mitochondrial inhibitors and Yes | – |
